# Results from patent publication US20100056596A1, “RESISTANCE-REPELLENT RETROVIRAL PROTEASE INHIBITORS” (Sequoia Pharmaceuticals, priority 2004, published 2010).
# Where two headings read alike, the source gives them in different places.
# Assays:
# HIV-1 protease Mutant 8 = HIV-1 protease Mutant 8 (Human immunodeficiency virus type 1, UniProt P04585); test: Ki against HIV-1 protease Mutant 8; type: biochemical
# wild type HIV-1 protease = target: T1, wild type HIV-1 protease (Human immunodeficiency virus type 1 group M subtype B, UniProt P04585); test: Ki against wild type (WT) HIV-1 protease; type: biochemical
# T1 construct: over 45 of the 99 amino acids of the HIV protease monomer
# HIV-1 protease Mutant 9 = HIV-1 protease Mutant 9 (Human immunodeficiency virus type 1, UniProt P04585); test: Ki against HIV-1 protease Mutant 9; type: biochemical
# HIV-1 isolates, Mutant 8 = test: In vitro drug sensitivity of HIV-1 laboratory isolates, Mutant 8; type: cell-based
# Procedure: (§1) In Vitro Drug Sensitivity of HIV-1 Laboratory Isolates to PIs
# (§2) The sensitivities of HIV-1 isolates against compounds of the invention were determined as previously described with minor modifications (Shiraska et al., Proc. Natl. Acad. Sci. USA, 92, 2398-2402 (1995)).
# HIV-1 isolates, WT = test: In vitro drug sensitivity of HIV-1 laboratory isolates, WT; type: cell-based
# Procedure: as §1, §2
# HIV-1 isolates, Mutant 9 = test: In vitro drug sensitivity of HIV-1 laboratory isolates, Mutant 9; type: cell-based
# Procedure: as §1, §2
# [1] = Mutant 8, read-out: IC50 Mutant 8
# [2] = Mutant 9, read-out: IC50 Mutant 9
# [3] = Human immunodeficiency virus 1, read-out: IC50 Mutant 8
# [4] = Human immunodeficiency virus 1, read-out: IC50 Mutant 9
# [5] = Human immunodeficiency virus 1, HIV-1 isolate WT
Structure (SMILES),Ki (HIV-1 protease Mutant 8; Mutant 8) [nM],Ki (wild type HIV-1 protease; WT) [nM],Ki (HIV-1 protease Mutant 9; Mutant 9) [nM],"IC50 (HIV-1 isolates, Mutant 8; [1]) [nM]","IC50 (HIV-1 isolates, WT; WT) [nM]","IC50 (HIV-1 isolates, Mutant 9; [2]) [nM]","IC50 (HIV-1 isolates, Mutant 8; [3]) [nM]","IC50 (HIV-1 isolates, WT; Human immunodeficiency virus 1) [nM]","IC50 (HIV-1 isolates, Mutant 9; [4]) [nM]",Ki (HIV-1 protease Mutant 8; HIV-1 protease Mutant 8) [nM],Ki (wild type HIV-1 protease; wild type HIV-1 protease) [nM],Ki (HIV-1 protease Mutant 9; HIV-1 protease Mutant 9) [nM],"IC50 (HIV-1 isolates, WT; [5]) [nM]"
CCOC(=O)N(CCOC)Cc1coc2ccc(S(=O)(=O)N(CC(C)C)C[C@@H](O)[C@H](Cc3ccccc3)NC(=O)OC3COC4OCCC34)cc12 (stereo partly drawn) [Compound 126],< 0.3,< 0.1,0.92,60,4,250,,,,,,,
CCOC(=O)NCc1cc2cc(S(=O)(=O)N(CC(C)C)CC(O)C(Cc3ccccc3)NC(=O)OC3COC4OCCC34)ccc2o1 (stereo not drawn) [Compound 121],< 0.3,< 0.1,1.6,,,,21,8,> 400,,,,
CC(C)CN(CC(O)C(Cc1ccccc1)NC(=O)OC1COC2OCCC12)S(=O)(=O)c1ccc2onc(CNC(=O)C(F)(F)F)c2c1 (stereo not drawn) [Compound 234],,,,,,,23,,85,< 0.3,< 0.1,0.36,16
CC(C)CN(CC(O)C(Cc1ccccc1)NC(=O)OC1COC2OCCC12)S(=O)(=O)c1ccc2onc(CNC(=O)C(F)(F)C(F)(F)F)c2c1 (stereo not drawn) [Compound 245],,,,,,,30,,190,< 0.3,< 0.1,0.63,8.4
CCCCNc1n[nH]c2ccc(S(=O)(=O)N(CC(C)C)CC(O)C(Cc3ccccc3)NC(=O)OC3COC4OCCC34)cc12 (stereo not drawn) [Compound 308],< 0.3,< 0.1,1.8,,,,30,8,310,,,,
CCS(=O)(=O)NCc1noc2ccc(S(=O)(=O)N(CC(C)C)CC(O)C(Cc3ccccc3)NC(=O)OC3COC4OCCC34)cc12 (stereo not drawn) [Compound 223],,,,,,,11,,60,< 0.3,< 0.1,0.26,9
CC(C)CN(CC(O)C(Cc1ccccc1)NC(=O)OC1COC2OCCC12)S(=O)(=O)c1ccc2onc(CNCCc3ccccn3)c2c1 (stereo not drawn) [Compound 224],,,,,,,30,,100,< 0.3,< 0.1,0.22,15
CC(C)CN(CC(O)C(Cc1ccccc1)NC(=O)OC1COC2OCCC12)S(=O)(=O)c1ccc2onc(CNCC3CCCCC3)c2c1 (stereo not drawn) [Compound 238],,,,,,,35,,55,< 0.3,< 0.1,< 0.1,7.5
CC(C)CN(CC(O)C(Cc1ccccc1)NC(=O)OC1COC2OCCC12)S(=O)(=O)c1ccc2onc(CNCC(F)(F)F)c2c1 (stereo not drawn) [Compound 229],,,,,,,3.1,,21,< 0.3,< 0.1,0.46,2.2
CC(C)CN(C[C@@H](O)[C@H](Cc1ccccc1)NC(=O)OC1COC2OCCC12)S(=O)(=O)c1ccc2occ(CNC(=O)c3ccco3)c2c1 (stereo partly drawn) [Compound 125],< 0.3,< 0.1,< 0.1,9,5,31,,,,,,,
CC(C)CN(CC(O)C(Cc1ccccc1)NC(=O)OC1COC2OCCC12)S(=O)(=O)c1ccc2onc(CNC(=O)OC(C)C)c2c1 (stereo not drawn) [Compound 212],,,,,,,30,,> 400,< 0.3,< 0.1,0.34,5
CC(C)CN(C[C@@H](O)[C@H](Cc1ccccc1)NC(=O)OC1COC2OCCC12)S(=O)(=O)c1ccc2occ(CNC(=O)CNC(=O)OCc3ccccc3)c2c1 (stereo partly drawn) [Compound 116],< 0.3,< 0.1,0.41,50,15,58,,,,,,,
CCS(=O)(=O)N(CCOC)Cc1noc2ccc(S(=O)(=O)N(CC(C)C)CC(O)C(Cc3ccccc3)NC(=O)OC3COC4OCCC34)cc12 (stereo not drawn) [Compound 227],,,,,,,27,,80,0.41,< 0.1,2.6,3.6
CCSCCNCc1noc2ccc(S(=O)(=O)N(CC(C)C)CC(O)C(Cc3ccccc3)NC(=O)OC3COC4OCCC34)cc12 (stereo not drawn) [Compound 226],,,,,,,16,,38,< 0.3,< 0.1,< 0.1,5.5
CC(C)CN(CC(O)C(Cc1ccccc1)NC(=O)OC1COC2OCCC12)S(=O)(=O)c1ccc2onc(CN3CCOCC3)c2c1 (stereo not drawn) [Compound 239],,,,,,,25,,> 400,< 0.3,< 0.1,3.7,3
"CC(C)CN(CC(O)C(Cc1ccccc1)NC(=O)OC1COC2OCCC12)S(=O)(=O)c1ccc2occ(CNC(=O)c3ccccc3)c2c1 (stereo not drawn) [Compound 114, (3-{[3-(Benzoylamino-methyl)-benzofuran-5-sulfonyl]-isobutyl-amino}-1-benzyl-2-hydroxy-propyl)-carbamic acid hexahydro-furo[2,3-b]furan-3-yl ester]",< 0.3,0.1,< 0.1,,,,23,4,30,,,,
CCC(CC)Nc1n[nH]c2ccc(S(=O)(=O)N(CC(C)C)CC(O)C(Cc3ccccc3)NC(=O)OC3COC4OCCC34)cc12 (stereo not drawn) [Compound 307],< 0.3,< 0.1,0.55,,,,24,7.5,110,,,,
CC(C)CN(CC(O)C(Cc1ccccc1)NC(=O)OC1COC2OCCC12)S(=O)(=O)c1ccc2onc(CNC(=O)c3ccco3)c2c1 (stereo not drawn) [Compound 240],,,,,,,11,,20,< 0.3,< 0.1,0.26,6.5
CC(C)CN(C[C@@H](O)[C@H](Cc1ccccc1)NC(=O)OC1COC2OCCC12)S(=O)(=O)c1ccc2c(c1)C(=O)CCO2 (stereo partly drawn),0.42,< 0.1,4.9,,,,42,3.5,625,,,,
CC(C)CN(C[C@@H](O)[C@H](Cc1ccccc1)NC(=O)OC1CO[C@H]2OCC[C@@H]12)S(=O)(=O)c1ccc2c(c1)CCO2 (stereo partly drawn),< 0.3,< 0.1,1.5,,,,13,1,157,,,,
CC(C)CN(CC(O)C(Cc1ccccc1)NC(=O)OC1COC2OCCC12)S(=O)(=O)c1ccc2[nH]nc(NC3CCCCC3)c2c1 (stereo not drawn) [Compound 304],< 0.3,< 0.1,0.93,,,,12,6.1,100,,,,
CC(C)CN(CC(O)C(Cc1ccccc1)NC(=O)OC1COC2OCCC12)S(=O)(=O)c1ccc2onc(CNS(C)(=O)=O)c2c1 (stereo not drawn) [Compound 207],,,,,,,28,,54,< 0.3,< 0.1,0.34,22
CC(C)CN(CC(O)C(Cc1ccccc1)NC(=O)OC1COC2OCCC12)S(=O)(=O)c1ccc2onc(CNS(=O)(=O)C(C)C)c2c1 (stereo not drawn) [Compound 204],,,,,,,31,,83,< 0.3,< 0.1,0.14,6.5
CC(C)CN(C[C@@H](O)[C@H](Cc1ccccc1)NC(=O)OC1CO[C@H]2OCC[C@@H]12)S(=O)(=O)c1ccc2c(c1)CC(CO)O2 (stereo partly drawn),0.38,< 0.1,9,,,,47,5.4,500,,,,
